Here are results for one molecule from PMC4579270, “Identification and Characterization of an Irreversible Inhibitor of CDK2” (Chemistry & Biology, 2015).

Holding throughout (assay): Dundee kinase screen re-test (standard format and 4 hour pre-incubation)
What all share (format): biochemical

For one experiment, the target named is CLK2 (Homo sapiens, UniProt P49760). Conditions: CLK2, 0.5µM. Put shortly: (§1)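 Selectivity panel of 131 protein kinases, inhibitor tested at a single concentration of 1 µM; values are % kinase activity remaining, mean of duplicates. Re-test of selected kinases used 0.5 µM in the standard format and again after a 4 hour pre-incubation with the inhibitor.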
The next experiment concerns the target YES1 (Homo sapiens, UniProt P07947). Particulars: YES1, 0.5µM. The essentials:
as §1

Another experiment has as its target IR (Homo sapiens, UniProt P06213). The essentials: as §1
A further experiment concerns the target T1, MARK4 (Homo sapiens, UniProt Q96L34).
T1 sequence (Q96L34 1-752): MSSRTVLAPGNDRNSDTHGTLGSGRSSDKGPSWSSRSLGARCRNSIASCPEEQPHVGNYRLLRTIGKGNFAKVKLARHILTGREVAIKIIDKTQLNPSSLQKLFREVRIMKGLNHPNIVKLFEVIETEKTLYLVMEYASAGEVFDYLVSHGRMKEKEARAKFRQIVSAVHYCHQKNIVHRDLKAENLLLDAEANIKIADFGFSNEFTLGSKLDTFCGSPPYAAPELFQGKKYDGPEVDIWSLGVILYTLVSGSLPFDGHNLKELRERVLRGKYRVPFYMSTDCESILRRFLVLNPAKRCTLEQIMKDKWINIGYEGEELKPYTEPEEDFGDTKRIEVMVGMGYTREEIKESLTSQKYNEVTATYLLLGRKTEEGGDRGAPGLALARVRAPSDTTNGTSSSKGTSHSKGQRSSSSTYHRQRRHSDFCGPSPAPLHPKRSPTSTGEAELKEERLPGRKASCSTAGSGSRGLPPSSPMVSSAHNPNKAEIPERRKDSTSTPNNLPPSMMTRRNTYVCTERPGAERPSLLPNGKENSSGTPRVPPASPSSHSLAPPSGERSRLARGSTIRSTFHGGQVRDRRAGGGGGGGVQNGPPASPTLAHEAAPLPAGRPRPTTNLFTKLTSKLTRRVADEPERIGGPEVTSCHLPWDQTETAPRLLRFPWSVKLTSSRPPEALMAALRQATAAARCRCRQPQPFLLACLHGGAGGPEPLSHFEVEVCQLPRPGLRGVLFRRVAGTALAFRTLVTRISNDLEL
Conditions: MARK4, 0.5µM. The essentials: as §1

Another experiment addresses T2, ASK1 (Homo sapiens, UniProt Q99683).
T2 sequence (Q99683 1-1374): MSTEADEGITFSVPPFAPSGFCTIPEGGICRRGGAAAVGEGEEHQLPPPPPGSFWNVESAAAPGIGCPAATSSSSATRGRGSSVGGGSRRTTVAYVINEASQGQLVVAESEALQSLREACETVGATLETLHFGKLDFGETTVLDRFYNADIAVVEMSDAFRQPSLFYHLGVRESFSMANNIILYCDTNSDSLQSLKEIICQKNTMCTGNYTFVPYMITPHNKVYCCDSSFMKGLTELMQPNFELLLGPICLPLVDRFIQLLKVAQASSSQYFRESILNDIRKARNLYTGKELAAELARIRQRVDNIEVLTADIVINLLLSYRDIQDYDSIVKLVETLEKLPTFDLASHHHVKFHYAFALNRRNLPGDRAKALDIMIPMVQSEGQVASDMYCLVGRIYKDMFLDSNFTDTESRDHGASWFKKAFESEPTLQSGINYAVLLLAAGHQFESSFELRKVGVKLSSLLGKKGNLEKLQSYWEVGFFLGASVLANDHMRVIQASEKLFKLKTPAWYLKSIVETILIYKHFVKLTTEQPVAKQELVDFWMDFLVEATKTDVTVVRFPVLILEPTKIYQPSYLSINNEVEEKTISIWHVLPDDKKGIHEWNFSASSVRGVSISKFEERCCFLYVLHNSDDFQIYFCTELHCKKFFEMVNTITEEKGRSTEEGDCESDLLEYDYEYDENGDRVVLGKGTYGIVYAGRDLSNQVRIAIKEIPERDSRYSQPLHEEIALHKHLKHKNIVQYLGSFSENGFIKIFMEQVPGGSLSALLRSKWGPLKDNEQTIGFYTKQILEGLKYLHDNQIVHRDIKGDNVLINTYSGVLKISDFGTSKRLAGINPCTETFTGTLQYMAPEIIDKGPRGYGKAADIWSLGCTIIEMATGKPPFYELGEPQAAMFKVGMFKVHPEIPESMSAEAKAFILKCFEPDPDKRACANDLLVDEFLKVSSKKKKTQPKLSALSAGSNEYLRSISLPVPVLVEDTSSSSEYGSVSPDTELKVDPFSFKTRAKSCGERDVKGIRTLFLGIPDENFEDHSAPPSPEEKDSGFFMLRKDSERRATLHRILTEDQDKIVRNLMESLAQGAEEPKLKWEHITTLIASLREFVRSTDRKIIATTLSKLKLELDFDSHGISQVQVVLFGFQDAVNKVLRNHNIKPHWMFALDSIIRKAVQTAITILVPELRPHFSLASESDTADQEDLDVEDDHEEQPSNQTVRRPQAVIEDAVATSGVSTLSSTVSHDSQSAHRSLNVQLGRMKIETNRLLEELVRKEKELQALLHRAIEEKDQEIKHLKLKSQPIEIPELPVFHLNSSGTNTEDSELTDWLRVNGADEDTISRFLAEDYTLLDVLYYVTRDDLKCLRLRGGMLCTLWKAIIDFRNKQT
Particulars: ASK1, 0.5µM. Put shortly:
as §1

Setting [1] is: 4hr RT preincubation, read-out: %Remaining activity at 0.5µM NU6300 - 4hr RT preincubation.
Setting [2] is: usual format, read-out: %Remaining activity at 0.5µM NU6300 - Usual assay format.

Read-outs that look alike come from different tables or passages of the source.

CLK2, sequence (P49760 whole entry): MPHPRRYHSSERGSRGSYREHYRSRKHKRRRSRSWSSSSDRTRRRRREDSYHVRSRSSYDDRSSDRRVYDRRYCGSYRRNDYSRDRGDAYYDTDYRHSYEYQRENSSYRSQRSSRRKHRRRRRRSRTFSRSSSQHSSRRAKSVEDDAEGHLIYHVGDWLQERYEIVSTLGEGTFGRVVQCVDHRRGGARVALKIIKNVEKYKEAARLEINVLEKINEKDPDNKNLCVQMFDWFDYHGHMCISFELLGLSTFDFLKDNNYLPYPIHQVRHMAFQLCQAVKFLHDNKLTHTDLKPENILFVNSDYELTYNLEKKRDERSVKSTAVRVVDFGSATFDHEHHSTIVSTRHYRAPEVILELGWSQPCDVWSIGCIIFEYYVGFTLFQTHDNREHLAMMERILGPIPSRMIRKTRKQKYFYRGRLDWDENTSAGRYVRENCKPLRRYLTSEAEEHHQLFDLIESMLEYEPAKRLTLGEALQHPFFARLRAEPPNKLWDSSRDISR
YES1, sequence (P07947 whole entry): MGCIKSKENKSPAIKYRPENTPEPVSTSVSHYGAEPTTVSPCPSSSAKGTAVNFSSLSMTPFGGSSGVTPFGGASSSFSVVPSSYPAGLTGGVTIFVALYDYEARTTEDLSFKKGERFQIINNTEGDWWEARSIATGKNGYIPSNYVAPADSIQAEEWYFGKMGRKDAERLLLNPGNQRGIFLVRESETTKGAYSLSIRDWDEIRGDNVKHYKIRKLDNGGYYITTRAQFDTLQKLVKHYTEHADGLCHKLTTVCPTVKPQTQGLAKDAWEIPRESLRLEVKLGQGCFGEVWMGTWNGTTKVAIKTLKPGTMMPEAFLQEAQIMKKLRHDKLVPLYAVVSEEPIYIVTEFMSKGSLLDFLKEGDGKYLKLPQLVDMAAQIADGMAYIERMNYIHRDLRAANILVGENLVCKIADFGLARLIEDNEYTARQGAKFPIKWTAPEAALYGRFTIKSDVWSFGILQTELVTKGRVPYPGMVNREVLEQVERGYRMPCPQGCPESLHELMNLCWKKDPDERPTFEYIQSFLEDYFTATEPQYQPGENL
IR, sequence (P06213 28-1382): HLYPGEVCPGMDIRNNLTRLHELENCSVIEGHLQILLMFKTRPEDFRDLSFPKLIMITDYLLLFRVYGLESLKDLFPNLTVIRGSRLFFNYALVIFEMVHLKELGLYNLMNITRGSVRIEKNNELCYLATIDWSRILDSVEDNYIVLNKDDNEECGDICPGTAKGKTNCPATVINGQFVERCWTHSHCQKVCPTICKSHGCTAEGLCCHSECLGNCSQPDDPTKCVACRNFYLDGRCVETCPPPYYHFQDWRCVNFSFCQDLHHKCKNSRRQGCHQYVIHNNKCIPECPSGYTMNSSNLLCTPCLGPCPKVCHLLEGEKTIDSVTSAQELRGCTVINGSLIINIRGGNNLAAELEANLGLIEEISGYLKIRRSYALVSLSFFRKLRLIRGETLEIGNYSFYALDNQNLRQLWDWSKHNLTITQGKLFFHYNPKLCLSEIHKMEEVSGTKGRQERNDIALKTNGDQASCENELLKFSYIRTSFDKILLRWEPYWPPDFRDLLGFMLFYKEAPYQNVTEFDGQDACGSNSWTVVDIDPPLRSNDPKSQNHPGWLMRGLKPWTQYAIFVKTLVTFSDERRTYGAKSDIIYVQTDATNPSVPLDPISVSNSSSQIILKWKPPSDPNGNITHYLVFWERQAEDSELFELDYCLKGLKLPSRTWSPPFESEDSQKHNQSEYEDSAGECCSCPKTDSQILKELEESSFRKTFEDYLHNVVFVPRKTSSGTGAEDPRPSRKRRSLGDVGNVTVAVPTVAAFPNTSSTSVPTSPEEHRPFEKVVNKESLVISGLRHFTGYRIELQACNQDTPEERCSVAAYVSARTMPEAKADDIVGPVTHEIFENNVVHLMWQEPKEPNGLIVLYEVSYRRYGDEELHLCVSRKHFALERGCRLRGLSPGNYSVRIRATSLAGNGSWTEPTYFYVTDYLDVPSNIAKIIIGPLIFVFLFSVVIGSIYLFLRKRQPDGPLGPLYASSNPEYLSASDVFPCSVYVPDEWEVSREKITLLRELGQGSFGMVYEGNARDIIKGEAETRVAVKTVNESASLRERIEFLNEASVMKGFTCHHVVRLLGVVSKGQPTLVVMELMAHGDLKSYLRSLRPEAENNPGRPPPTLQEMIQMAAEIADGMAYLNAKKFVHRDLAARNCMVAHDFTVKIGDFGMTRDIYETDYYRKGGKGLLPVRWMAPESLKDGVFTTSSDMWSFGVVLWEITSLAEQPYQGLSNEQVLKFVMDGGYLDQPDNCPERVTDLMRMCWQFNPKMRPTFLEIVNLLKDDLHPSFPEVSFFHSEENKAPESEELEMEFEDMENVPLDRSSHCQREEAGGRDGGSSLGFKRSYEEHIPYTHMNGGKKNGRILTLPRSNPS

One may read the remaining activity as the signal under treatment as a percentage of the control signal. With `C=CS(=O)(=O)c1ccc(Nc2nc(OCC3CCCCC3)c3nc[nH]c3n2)cc1` [NU6300, 6-(cyclohexylmethoxy)-N-(4-(vinylsulfonyl)phenyl)-9H-purin-2-amine], the remaining activity at 0.5 µM at CLK2 (setting [1]) stood at 104%; on CLK2 (setting [2]), 35%; on YES1 (setting [1]), 135%; at YES1 (setting [2]), 43%; on IR (setting [1]), 58%; at IR (setting [2]) it was 48%. In addition, the remaining activity at 0.5 µM on MARK4 (setting [1]) worked out at 52%; at MARK4 (setting [2]), 47%; at ASK1 (setting [1]) it was 102%; at ASK1 (setting [2]), 89%.
